Our source for the mutagenic responses values is patent publication US20130072506A1, “6,8-DISUBSTITUTED PURINE COMPOSITIONS” (priority 2011, published 2013).

This series concerns Salmonella typhimurium histidien auxotrophs TA98 and TA100. Briefly: Ames test. The format is cell-based. Conditions: 2.5-5000 μg/plate, presence and absence of Aroclor-induced rat liver S9. As for the experimental part:
Ames Test. A number of tests related to the safety of these inventive compounds have been carried out using conventionally accepted protocols and procedures. Tests were carried out using DMSO as solvent and dose levels of 8-amino-6-furfurylaminopurine at 2.5, 5.0, 15, 50, 500, 1500, and 5000 μg/plate based upon standard protocol and procedures (Ames et al., Mutation Research, 31, 347-364 (1975); Maron et al., Mutation Research, 113, 173-215 (1983)).
In general terms: The Ames test detects mutagens through reverse mutation in bacteria.

For the compound `Nc1nc2c(NCc3ccco3)ncnc2[nH]1` [Compound 82, 6-furfurylamino-8-aminopurine], the mutagenic responses entry is recorded as “no positive mutagenic responses”.
